Assay results taken from patent US20210139435A1, “PROSTAGLANDIN ANALOGS AND USES THEREOF” (Lifex Biolabs, Inc., priority 2019, published 2021).

These compounds were tested against T1, mouse Nurr1 full-length (Mus musculus, UniProt Q06219) (assay: Luciferase reporter gene assay for Nurr1 transcriptional activity in SK-N-BE2C cells). Conditions: relative activity over control (luminescence value; 1.0).
T1 construct: pcDNA3.1 Myc/His mouse Nurr1 full-length construct; expressed in transfected cells; host or cells: SK-N-BE2C
T1 sequence (Q06219 whole entry): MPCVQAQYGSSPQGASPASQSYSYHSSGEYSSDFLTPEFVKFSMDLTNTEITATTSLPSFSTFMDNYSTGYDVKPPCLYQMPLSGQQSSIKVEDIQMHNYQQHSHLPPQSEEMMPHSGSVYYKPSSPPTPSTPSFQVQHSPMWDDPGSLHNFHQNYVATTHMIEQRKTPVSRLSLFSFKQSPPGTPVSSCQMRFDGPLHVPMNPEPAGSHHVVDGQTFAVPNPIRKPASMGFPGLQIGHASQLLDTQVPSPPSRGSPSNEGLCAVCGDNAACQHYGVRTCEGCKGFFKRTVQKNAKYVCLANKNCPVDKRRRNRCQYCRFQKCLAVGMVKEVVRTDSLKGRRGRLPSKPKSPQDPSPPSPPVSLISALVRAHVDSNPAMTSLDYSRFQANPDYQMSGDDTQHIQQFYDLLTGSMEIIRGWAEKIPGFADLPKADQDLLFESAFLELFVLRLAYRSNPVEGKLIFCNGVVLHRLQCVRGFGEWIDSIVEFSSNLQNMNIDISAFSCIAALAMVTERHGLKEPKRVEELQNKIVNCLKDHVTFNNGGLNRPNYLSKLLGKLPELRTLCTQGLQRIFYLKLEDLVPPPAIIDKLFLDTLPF
Assay type: cell-based
Method: To investigate whether the PG analogs of the present invention activate Nurr1 function, the inventors of the present invention employed an reporter gene assay and examined the transcriptional activation as described in Kim, C.-H. et al., Proceedings of the National Academy of Sciences 112, 8756-8761, doi:10.1073/pnas.1509742112 (2015).
The gene assay was performed by Luciferase assay as described below:
[Protocol for Luciferase Assay to Determine Nurr1 Transcriptional Activity] • 1. SK-N-BE2C cells were maintained in HyClone™ DMEM High Glucose (Cat. No.: SH30022.01) with 10% (v/v) fetal bovine serum (FBS), 100 units/ml penicillin and 100 μg/ml streptomycin. • 2. Seed 1.5×10^5 SK-N-BE2C cells/well into a 24-well plate and incubate at 37° C. with 5% CO2 for 24 hours. • 3. After 24 hours, transfect cells with pcDNA3.1 Myc/His mouse Nurr1 full-length construct, firefly luciferase reporter vector (pGL-3 basic from Promega, Cat. No.:E1751; with appropriate response element cloned in) and Renilla luciferase control vector (pRL-null from Promega, Cat. No.:E2271) in the ratio of 8:1:1 (Nurr1: firefly: renilla) or 400 ng, 50 ng and 50 ng respectively, amounting to a total of 500 ng in the 50 μl transfection mix for 1 well. • 4. To make the transfection mix, first prepare the DNA with P3000 reagent by adding the appropriate amount of DNA with 1 μl P3000 reagent and top up with Opti-MEM® I Reduced-Serum Media (from ThermoFisher Scientific [Cat. No.: 31985070]) to 25 μl. Incubate for 5 minutes at room temperature. • 5. Make another mix consisting of 1 μl Lipofectamine 3000 reagent with 24 μl Opti-MEM® I Reduced-Serum Media per well. Add this Lipofectamine mix to the previous DNA-P3000 mix (after the previous 5 minute incubation) and incubate them for 15 minutes at room temperature. [P3000:Lipofectamine=1:1]. • 6. In the meantime, change the media in the sample wells with fresh DMEM media without antibiotics. • 7. After 15 minutes incubation, add the 50 μl transfection mix into each well and incubate the plate for 24 hours at 37° C. with 5% CO2. • 8. After 24 hours, change the media to normal DMEM media with antibiotics and add various doses of compounds into designated wells and incubate the plate for another 24 hours at 37° C. with 5% CO2. • 9. Following the 24-hour incubation period, luciferase assay can be conducted using Dual-Glo Luciferase® kit from Promega (Cat. No.: E2920). • 10. Lyse each tested wells for 15 minutes with 75 μl of passive lysis buffer provided in the Dual-Luciferase® kit from Promega (Cat. No.: E1910). [Alternatively, add 75 μl of PBS and 75 μl of Dual-Glo® Luciferase Reagent and incubate for 10 minutes at room temperature (cover the plate with foil to protect from light). Transfer the entire sample in each well to a Greiner CELLSTAR® 96-well white polystyrene plate then proceed to step 13]. • 11. After 15 minutes, transfer each lysed sample to a Greiner CELLSTAR® 96-well white polystyrene plate (Cat. No.:655083). • 12. To each well of lysed cells, add 75 μl of Dual-Glo® Luciferase Reagent and incubate for 10 minutes at room temperature (cover the plate with foil to protect from light). • 13. Set the measurement with a 10-second integrated measurement period. • 14. Add 75 μl of Dual-Glo® Stop & Glo® reagent into each well and incubate for 10 minutes before commencing with the same parameters as before to determine the RLU for the Renilla luciferase. • 15. The averaged reading for wells corresponding to non-transfected cells can be subtracted from each RLU reading and duplicate/triplicate readings can then be averaged. Normalization of the luminescence reading for each well can be carried out by dividing the firefly luciferase RLU with the corresponding Renilla luciferase RLU. Each drug-treated well can then be normalized against the averaged DMSO-treated well reading.

Row | SMILES | Fold activity (1 uM)
1 | CCCCCC(O)/C=C/[C@H]1[C@H](O)CC(=O)[C@@H]1CCCCCCC(=O)Oc1ccc(NC(=O)c2ccc(F)cc2)cc1 (stereo partly drawn) [Compound 11, 4-(4-fluorobenzamido)phenyl 7-((1R,2R,3R)-3-hydroxy-2-((E)-3-hydroxyoct-1-enyl)-5-oxocyclopentyl)heptanoate] | A (above 2.0 (high activity))
2 | CCCCC[C@H](O)/C=C/[C@H]1[C@H](O)CC(=O)[C@@H]1CCCCCCC(=O)Nc1ccc2nccnc2c1 [Compound 7, 7-((1R,2R,3R)-3-hydroxy-2-((S,E)-3-hydroxyoct-1-enyl)-5-oxocyclopentyl)-N-(quinoxalin-6-yl)heptanamide] | A (above 2.0 (high activity))
3 | CCCCC[C@H](O)/C=C/[C@H]1[C@H](O)CC(=O)[C@@H]1CCCCCCC(=O)OCc1ccccc1 [Compound 15, benzyl 7-((1R,2R,3R)-3-hydroxy-2-((S,E)-3-hydroxyoct-1-enyl)-5-oxocyclopentyl)heptanoate] | A (above 2.0 (high activity))
4 | CCCC1([C@H](O)C/C=C/[C@H]2[C@H](O)CC(=O)[C@@H]2C/C=C\CCCC(=O)O)CCC1 [Compound 43, CAY10408] | B (1.1~2.0 (moderate))
5 | C[C@@H](O)CCC[C@H](O)/C=C/[C@H]1[C@H](O)CC(=O)[C@@H]1CCCCCCC(=O)O [Compound 83, 19(R)-hydroxy Prostaglandin E1] | B (1.1~2.0 (moderate))
6 | CCCCC[C@@H](O)CC[C@H]1[C@H](O)CC(=O)[C@@H]1CCCCCCC(=O)O [Compound 66, 13,14-dihydro-15(R)-Prostaglandin E1] | B (1.1~2.0 (moderate))
7 | CCCCC[C@H](O)/C=C/[C@H]1[C@H](O)CC(=O)[C@@H]1CCCCCCC(=O)Nc1ccccc1 [Compound 4, 7-((1R,2R,3R)-3-hydroxy-2-((S,E)-3-hydroxyoct-1-enyl)-5-oxocyclopentyl)-N-phenylheptanamide] | A (above 2.0 (high activity))
8 | CCCCC(C)(O)C/C=C/[C@H]1[C@H](O)CC(=O)[C@@H]1CCCCCCC(=O)NOc1ccccc1 (stereo partly drawn) [Compound 10, 7-((1R,2R,3R)-3-hydroxy-2-((E)-4-hydroxy-4-methyloct-1-enyl)-5-oxocyclopentyl)-N-phenoxyheptanamide] | A (above 2.0 (high activity))
9 | CCCCC(C)(O)C/C=C/[C@H]1[C@@H](O)CC(=O)[C@@H]1CCCCCCC(=O)OC (stereo partly drawn) [Compound 81, 11β-Misoprostol] | C (below 1.0 (low activity))
10 | CCCCCC(=O)CCC1C(=O)CC(O)C1CCCCCCC(=O)O (stereo not drawn) [Compound 79, 13,14-dihydro-15-keto Prostaglandin D1] | C (below 1.0 (low activity))
11 | CCCCCC(=O)CCC1C(O)CC(=O)C1CCCCCCC(=O)O (stereo not drawn) [Compound 74, 13,14-dihydro-15-keto Prostaglandin E1] | B (1.1~2.0 (moderate))
12 | CC(C)OC(=O)CCC/C=C\C[C@@H]1[C@@H](CC[C@@H](O)CCc2ccccc2)[C@H](O)C[C@@H]1O [Compound 91, Latanoprost] | B (1.1~2.0 (moderate))
13 | CCCCC[C@H](O)/C=C/[C@H]1[C@H](O)CC(=O)[C@@H]1CCCCCCC(=O)Oc1ccc(NC(=O)c2ccc(F)c(F)c2)cc1 [Compound 12, 4-(3,4-difluorobenzamido)phenyl 7-((1R,2R,3R)-3-hydroxy-2-((S,E)-3-hydroxyoct-1-enyl)-5-oxocyclopentyl)heptanoate] | A (above 2.0 (high activity))
14 | CCCCC[C@H](O)/C=C/[C@H]1[C@H](O)CC(=O)[C@@H]1CCCCCCC(=O)Nc1ccc(NC(=O)c2ccccc2)cc1 [Compound 3, N-(4-(7-((1R,2R,3R)-3-hydroxy-2-((S,E)-3-hydroxyoct-1-en-1-yl)-5-oxocyclopentyl)heptanamido)phenyl)benzamide] | B (1.1~2.0 (moderate))
15 | CCCCC(C)(O)C/C=C/[C@H]1[C@H](O)CC(=O)[C@@H]1CCCCCCC(=O)Oc1ccc(NC(=O)c2ccccc2)cc1 (stereo partly drawn) [Compound 2, 4-Benzamidophenyl-7-((1R,2R,3R)-3-hydroxy-2-((E)-4-hydroxy-4-methyloct-1-en-1-yl)-5-oxocyclopentyl)heptanoate] | A (above 2.0 (high activity))
16 | CCCCC(C)(O)C/C=C/[C@H]1[C@H](O)CC(=O)[C@@H]1CCCCCCC(=O)O (mixture of isomers) [Compound 94, Misoprostol acid] | B (1.1~2.0 (moderate))
17 | CCCCC[C@H](O)/C=C/[C@H]1[C@H](O)CC(=O)[C@@H]1CCCCCCC(=O)Nc1ccc(Cl)cc1 [Compound 5, N-(4-chlorophenyl)-7-((1R,2R,3R)-3-hydroxy-2-((S,E)-3-hydroxyoct-1-enyl)-5-oxocyclopentyl)heptanamide] | A (above 2.0 (high activity))

Next, values leading:

Row | Fold activity (1 uM) | SMILES
18 | C (below 1.0 (low activity)) | CCCCC[C@@H](O)/C=C/[C@H]1C(=O)C[C@H](O)[C@@H]1CCCCCCCO [Compound 56, Prostaglandin D1 Alcohol]
19 | C (below 1.0 (low activity)) | CCCCC[C@H](O)C/C=C1/C(=O)C[C@H](O)[C@@H]1C/C=C\CCCC(=O)O [Compound 41, D12-Prostaglandin D2]
20 | C (below 1.0 (low activity)) | CCCCC[C@H](O)/C=C/[C@H]1C(=O)C[C@H](O)[C@@H]1CCCCCCC(=O)O [Compound 48, Prostaglandin D1]
21 | A (above 2.0 (high activity)) | CCCC[C@H](C)C[C@H](O)/C=C/[C@H]1[C@H](O)CC(=O)[C@@H]1CCCC/C=C/C(=O)O [Compound 67, Limaprost]
22 | B (1.1~2.0 (moderate)) | CCCCCC(O)/C=C/C1C(=O)CC(O)C1C/C=C\CCCC(=O)OCC(O)CO (stereo not drawn) [Compound 17, Prostaglandin D2-1-glyceryl ester]
23 | A (above 2.0 (high activity)) | CCCCCCC[C@H](O)/C=C/[C@H]1[C@H](O)CC(=O)[C@@H]1C/C=C\CCCC(=O)O [Compound 62, 20-ethyl Prostaglandin E2]
24 | B (1.1~2.0 (moderate)) | CCCCCC(=O)/C=C/[C@H]1C(O)CC(=O)[C@H]1C/C=C\CCCC(=O)O (stereo partly drawn) [Compound 82, 8-iso-15-keto Prostaglandin E2]
25 | B (1.1~2.0 (moderate)) | CCCCCC(=O)/C=C/[C@H]1[C@H](O)CC(=O)[C@@H]1C/C=C\CCCC(=O)O [Compound 45, 15-keto Prostaglandin E2]
26 | A (above 2.0 (high activity)) | CCCCC[C@@H](O)/C=C/[C@H]1C(=O)C[C@H](O)[C@@H]1C/C=C\CCCC(=O)O [Compound 16, 15(R)-Prostaglandin D2]
27 | C (below 1.0 (low activity)) | CCCCC[C@@H](O)/C=C/[C@H]1[C@H](O)CC(=O)[C@@H]1CCCCCCC(=O)O [Compound 87, 15(R)-PGE1]
28 | B (1.1~2.0 (moderate)) | CCCCCC(=O)CC[C@H]1C(=O)C[C@H](O)[C@@H]1C/C=C\CCCC(=O)O [Compound 33, 13,14-dihydro-15-keto Prostaglandin D2]
29 | B (1.1~2.0 (moderate)) | CCCCC[C@H](O)/C=C/[C@H]1[C@H](O)CC(=O)[C@@H]1C/C=C/CCCC(=O)O (relative stereo) [Compound 60, 5-trans Prostaglandin E2]
30 | A (above 2.0 (high activity)) | CCCCC[C@H](O)/C=C/[C@H]1[C@H](O)CC(=O)[C@@H]1CCCCCCCO [Compound 89, 1,11a,15S-Trihydroxy-prost-13E-EN-9-ONE]
